Tests used:
Format in all cases: in vivo, human
homocysteine = experiment: Total homocysteine by HPLC in the intervention study
From the text: (§1) The effects of betaine supplementation on blood pressure, and in addition on body weight, body composition, resting energy expenditure, and concentrations of serum total and lipoprotein lipids and plasma homocysteine in humans, were studied. The participants were healthy, obese adults with normal blood pressure.
(§2) Forty-two subjects (14 males, 28 females) without any chronic disease and with normal liver, kidney and thyroid function participated in the study. The inclusion criteria for body mass index (BMI) was 28-40 kg/m^2 and for age 25-60 years. Serum concentration of total triglycerides had to be <3.5 mmol/l and that of total cholesterol <7.5 mmol/l. Inclusion criteria for fasting concentration of plasma glucose was <6.7 mmol/l. Subjects with lipid lowering medication were excluded as well women with perimenopause. Four women were postmenopausal in the control group and 6 were postmenopausal in the betaine group. None of the participants were on a medication for hypertension.
(§3) The study was a controlled, randomized double-blinded parallel study. […] Grapefruit juice was added to simulate the bitter taste of betaine. The subjects were on their regular eucaloric diet during this period. For the intervention period with a hypocaloric (−2100 kJ or −500 kcal) diet the subjects were randomly assigned in two groups (20 for the control group, 22 for the betaine group). The subjects were matched for BMI, gender and menstrual cycle.
(§4) The control group consumed orange juice 1 dl twice a day and the betaine group consumed betaine enriched orange juice 1 dl twice a day. The amount of betaine was 3 g per 1 dl orange juice, giving a daily betaine dose of 6 g.
Plasma total homocysteine was determined by a modification of the highpressure liquid chromatographic method described by Ubbink et al. (Ubbink, J. B., Vermaak, W. J. H., Bissbort, S. Rapid high-performance liquid chromatographic assay for total homocysteine levels in human serum. J Chromatogr (1991) 565:441446). The modified mobile phase consisted of 0.37 mol/l acetate and 0.5% methanol, pH 4.15.

[1] = Betaine absorption and excretion: blood, serum and urine levels after administration
Procedure: There was, however, no clear correlation between blood and urine betaine levels. After administration of 1, 3 or 6 g betaine an amount of about 3, 5 and 7%, respectively, was recovered as betaine and dimethylglycine (DMG) in 24 h urine. After loading betaine 100 mg/kg, peak serum concentrations were found 1-2 h after loading; the concentrations varying a lot with indiviudual (148-258 μmol/l).

[2] = test system: healthy, obese adults with normal blood pressure; experiment: Effect of betaine on blood pressure, controlled randomized double-blinded 12-week intervention study
From the text: as §1, §2, §3, §4
The data were analyzed with the SPSS/PC+ statistics program (V8.0, SPSS; Chicago, Ill.). Before further analyses, normal distribution of the variables was checked with the Kolmogorov-Smimov test with Lilliefors significance correction. Variables with abnormal distribution (TG) were logarithmized and the logarithmized values were used in further analyses. GLM for repeated measures was used to test the changes within time. In cases the result of this analysis was significant paired t-test was used for two-tailed comparisons within the groups. Student's t-test was used for between-group comparisons. […] All data are expressed as mean±SD.
Blood pressure was measured from the right arm after five minutes of rest in sitting position using a zero mercury sphygmomanometer. Two measurements were performed and the mean of them was calculated and used for further analyses.

[3] = test system: healthy, obese adults with normal blood pressure; experiment: Tolerability of the daily betaine dose in the intervention study; conditions: 6 g daily dose, 12 weeks
From the text: as §1, §2
as §3, with “The subjects were matched for BMI, gender and menstrual cycle.” left out

[4] = 4 wk (beginning of intervention period), betaine group, mean ± SD

## C[N+](C)(C)CC(=O)[O-] [Betaine, trimethylglycine]
homocysteine; 4 wk (beginning of intervention), betaine group, mean ± SD
  Serum homocysteine concentration: 8.76 ± 1.63 µmol/L
homocysteine; 16 wk (end of intervention), betaine 6 g daily, P=0.025 vs 4 wk
  Serum homocysteine concentration: 7.93 ± 1.52 µmol/L
homocysteine; betaine 6 g daily, P=0.030 vs control group
  Change in serum homocysteine concentration during the intervention period: -0.83 ± 0.34 µmol/L
[1]; loading betaine 100 mg/kg
  Time of peak serum concentrations after loading: 1 to 2 h
[1]; loading betaine 100 mg/kg, varying with individual
  Peak serum concentrations: 148 to 258 µmol/L
[1]; persons given betaine in the study
  Betaine in blood and urine of persons given betaine (result in words): Significantly increased amounts
[2]; [4]
  Diastolic blood pressure: 85.4 ± 7.9 mmHg
  Systolic blood pressure: 122.5 ± 9.5 mmHg
[2]; 12-week intervention, betaine 6 g daily, mean ± SD, P=0.219 vs control group
  Change in diastolic blood pressure during the intervention period: −4.9 ± 6.6 mmHg
[2]; 12-week intervention, betaine 6 g daily, mean ± SD, P=0.740 vs control group
  Change in systolic blood pressure during the intervention period: −1.4 ± 8.0 mmHg
[2]; 16 wk (end of intervention period), betaine 6 g daily in orange juice, mean ± SD, P=0.002 vs 4 wk
  Diastolic blood pressure: 80.5 ± 7.1 mmHg
[2]; 16 wk (end of intervention period), betaine 6 g daily in orange juice, mean ± SD, P=0.432 vs 4 wk
  Systolic blood pressure: 121.1 ± 9.4 mmHg
[2]; betaine group, normotensive subjects, 4 wk vs 16 wk
  Diastolic blood pressure (result in words): decreased significantly
[3]
  Side effects: no side effects were observed
  Tolerability: well tolerated
